The text below walks through data of patent US5075327A, “Antipsoriatic agents” (Hoffmann-La Roche Inc., priority 1988, dated 1991).

The test system of one data set is human keratinocytes. Briefly: Inhibition of proliferation of cultured human keratinocytes (cell count by Coulter Counter). It is filed as cell-based. The note with it: for inhibition at 1 µM / inhibition at 0.1 µM / inhibition at 0.01 µM: Homo sapiens, Keratinocyte; for inhibition at 1 µM: 10^-6 M; for inhibition at 0.1 µM: 10^-7 M; for inhibition at 0.01 µM: 10^-8 M; for Percent Inhibition on Keratinocyte Proliferation: ^ 10^-10 M. As for the experimental part:
Human neonatal foreskins were collected by circumcision and placed into tubes containing DMEM media. Upon arrival at the laboratory the foreskins were mechanically trimmed of excess dermis and treated with a solution of trypsin/EDTA (0.05%/0.02%) at 4° C. overnight. The epidermis was stripped from the dermis, agitated in buffered saline to remove basal keratinocytes and the stratum corneum buffer was removed. The separated cells were centrifuged, resuspended in media, counted and the cells were plated onto a plain plastic material layer.
The keratinocytes were plated at a density of approximately about 10^5 cells/cm^2 in 35 cm^2 dishes. The cells were grown in keratinocyte growth media (KGM-modified MCDB 153 containing […] by Clonetics of Boulder, Colo.) according to protocols originally developed by Boyce, S. T. and Ham, R. G., J. of Tissue Culture Meth. 9:83-93 (1985). The cells were grown for 5-10 days and changed every 2-3 days with keratinocyte growth media with 1.5 mM CaCl2 (hereinafter KGM/1.5 mM CaCl2) until cells reached a 75% confluency by visual observation. All the cultures were incubated in a humidified atmosphere of 5% CO2 at 37° C.
To establish keratinocyte cell cultures as antiproliferative assays, cells prepared as described in the foregoing were washed with PBS and removed from the culture surface with a solution of trypsin/EDTA (0.25%/0.03%). The removed cells were then centrifuged resuspended in the KGM/1.5 mM CaCl2 and counted. The cells were then distributed to 6 well plates at 100,000 cells per well as described in the foregoing. […] After 24-48 hours the cells were changed into KGM/1.5 mM CaCl2. Test compounds were added one to two days later and the cultures maintained for seven days. The media was changed every 2-3 days.
Solutions of the test compounds were prepared as follows: 1 milligram quantities were received in amber glass vials, and stored at -20° C. Sufficient 100% ethanol was added directly to vials to obtain a millimolar solution that was subsequently aliquoted into small amber vials, overlayed with argon gas and stored at -20° C. Each stock solution was thawed once, used and discarded. Aliquots from the stock solutions were diluted directly into medium and then serially diluted from micromolar to 10^-12 M concentrations. Dilutions from 10^-8 M to 10^-12 M had ethanol added for a final concentration of 0.1%. Stock solutions were used within one month. Control cultures were treated with 0.1% ethanol.
For each experiment every culture well received the same number of cells from the same culture source. At the termination of the experiment the number of cells per was determined by the following procedure. Wells were washed twice with PBS and then incubated for approximately 10-20 minutes at 37° C. with a trypsin/EDTA solution (0.25%/0.03%). PBS plus 0.1% […] was added and the cells were suspended. An aliquot of the cells was placed into isotonic buffered saline and counted on an electronic particle counter (e.g. Coulter Counter® device by Coulter Electronics of Hialeah, Fla.).
For statistical analysis, the mean was calculated for all wells in each treatment group. Standard error was determined by nonbiased analysis using a value for the number of wells in each group, preferably N=3.
Quantification of proliferation was done by enumerating the number of keratinocyte cells in each well using the Coulter Counter®. Results shown in Table 1 below show the percent reduction or inhibition of keratinocyte cells calculated for each of 4 concentrations of the compounds tested according to the formula: [formula]
Each compound was tested in triplicate. The control (ETOH), as noted above, was 0.1% ethanol.

Data set [1] has as its system cholesterol biosynthesis in HepG2 cells. In words: Inhibition of cholesterol biosynthesis in HepG2 cells (3H2O incorporation into cholesterol). Type of data set: cell-based. Particulars: for IC50: Homo sapiens. How it is done:
HepG2 cells are maintained in 175 cm^2 T flasks in Darlington Medium supplemented with 10% fetal bovine serum (FBS). Darlington Medium consists of 3 parts Minimal Essential Medium, 1 part Waymouth's MAB87/3 medium and 3×10^-8 M sodium selenite. This medium is supplemented with 100 U/ml penicillin, 100 ug/ml streptomycin and 2.5 ug/ml Fungizone. In order to establish optimal conditions for the whole cell cholesterol biosynthesis assay, preliminary experiments were performed. 0.25, 0.5, 0.75 or 1×10^6 cells were seeded into 6 well cluster plates in 2 ml of fully supplemented Darlington Medium. The serum supplemented medium was aspirated after 72 hours and replaced with serum free Darlington Medium with antibiotics. After 24, 48 or 72 hours serum free, the cells received either 0.5 or 1 mCi ^3 H2 O/ml medium. This medium was aspirated after 24 hours and the cells were washed twice with phosphate buffered saline. The cells were frozen overnight at -20° C. after which they were harvested from the wells with 1 ml of trypsin-EDTA. Extracted lipids were separated on an HPLC system; cholesterol peaks were collected and counted in a scintillation counter. Results are expressed as the dpm ^3 H2 O incorporated into cholesterol.
In the screening assay the cells received compounds at various concentrations concommitantly with ^3 H2 O. When ethanol was the vehicle, the final ethanol concentration was 0.5%, and control wells with that concentration of ethanol were used in each experiment. Results are expressed as the percent dpm ^3 H2 O incorporated into cholesterol in treated vs control wells. IC50 values are calculated using a linear regression analysis.

In the next data set the test system is human keratinocyte cells. Briefly: Toxicity to keratinocytes in the proliferation assay. It is filed as cell-based. The note with it: 10^-6 M; keratinocyte cells in vitro.
In a further data set the test system is cholesterol biosynthesis. Particulars: U.S. Pat. No. 4,450,171, col. 1, lines 43-51; cited from earlier work.
Where [2] appears, read: 168 h, 7 days, N = 3, read-out: Percent Inhibition on Keratinocyte Proliferation.

Read-outs that look alike come from different tables or passages of the source.

A word on the IC50: it is the concentration that gives 50% inhibition. A low value points to greater potency in that assay. Regarding `CC[C@H](C)C(=O)O[C@H]1CCC=C2C=CC[C@H](CC[C@@H]3C[C@@H](O)CC(=O)O3)[C@]21C` [Compound A, [4R-(4α,6β),6[1S-[1α,8β(S), 8aα]]]-6-[2-[1,2,6,7,8,8a-hexahydro-8a-methyl-8-(2-methyl-1-oxo-butoxy)-1-naphthalenyl]-ethyl]tetrahydro-4-hydroxy-2H-pyran-2-one], in the data set with human keratinocytes (setting [2]), the inhibition at 1 µM is 17.1%, the inhibition at 0.1 µM came out at 10% and the inhibition at 0.01 µM amounted to 8.24%. The inhibition at 1 µM in the data set with human keratinocytes (read-out: inhibition rate of proliferation of keratinocyte cells) was around 20%. Moreover, the “Percent Inhibition on Keratinocyte Proliferation” value with human keratinocytes (7 days, N = 3) amounted to 20.98%. Also, the “cholesterol biosynthesis inhibition as compared to mevinolin” value in data set [1] (HepG2 cells, Tests I and II) is on record as “exhibited cholesterol biosynthesis inhibition”. The IC50 in data set [1] (HepG2, Test I) came to 47 nM. The compound also showed a 50% inhibitory concentration (IC50) in data set [1] (HepG2, Test II) of 3810 nM. Moreover, the “toxicity to the cells” value in the data set on human keratinocyte cells was “without toxicity to the cells”.
With `CC(=O)O[C@H]1CCCC2=CCC[C@H](CCC=O)[C@]21C` [Compound B, [1S-(1α,8β,8aβ)]-8-(2-formylethyl)-8a-methyl-1,2,3,4,6,7,8,8a-octahydro-1-naphthalenol-acetate], in the data set with human keratinocytes (setting [2]), the inhibition at 1 µM was 19.5%, the inhibition at 0.1 µM turned out to be 31.4% and the inhibition at 0.01 µM is 22.9%. For the same compound, the “Percent Inhibition on Keratinocyte Proliferation” value in the data set on human keratinocytes (7 days, N = 3) was found to be 4.52%. Also, the “inhibition of cell proliferation relative to compound A” value in the data set with human keratinocytes (conclusion in words) is given as “slightly greater rate than compound A”.
For `CCC(C)C(=O)OC1CC(C)C=C2C=CC(C)C(CCC3CC(O)CC(=O)O3)C21` (centres unmarked) [mevinolin, reference compound], the “activity in inhibiting cholesterol biosynthesis among the natural mevinolin compounds” value in the data set on cholesterol biosynthesis is on record as “most active member”. For the same compound, the half-inhibitory concentration (IC50) in data set [1] (HepG2, Test I) stood at 20 nM; in data set [1] (HepG2, Test II), 640 nM.
